Source: patent publication US10128078B2, “Protective agent for electron microscopic observation of biological sample in water-containing state, kit for electron microscopic observation, methods for observation, diagnosis, evaluation, and quantification by electron microscope, and sample stage” (JAPAN SCIENCE AND TECHNOLOGY AGENCY, priority 2014, dated 2018)

Tests used:
[1] = system: metastatic human melanoma cell line; assay: SEM observation of metastatic human melanoma cell line inoculated on a cell sheet of normal human skin cell after adding an anti-cancer drug; type: cell-based; details: 60 minutes after sorafenib was added; cell sheet of human skin-derived fibroblast cell; SEM image
Experimental: (§1) A protective agent for electron microscopic observation and a surfactant-containing solution were prepared in the same manner as in Example 1.
A cell sheet obtained by culturing a normal human skin cell in a plate shape was inoculated with a metastatic human melanoma cell line and treated with the protective agent for electron microscopic observation and the surfactant-containing solution in 60 minutes after sorafenib of a kind of anti-cancer drug was added the cell sheet. Thereafter, the metastatic human melanoma cell line covered with the surfactant-containing solution was introduced into the sample chamber of the SEM, irradiated with an electron beam to polymerize the surfactant-containing solution and thus to form a thin film, and subjected to the SEM observation.
FIG. 17(a) is an image of the metastatic human melanoma cell line which was inoculated onto a cell sheet of the human skin-derived fibroblast cell, to which sorafenib was added, and which was observed and taken at a magnification of 1000-fold by a SEM. In addition, FIG. 17(b) is an image of FIG. 17(a) which was observed and taken at a magnification of 5000-fold by a SEM.

artificial human skin = assay: SEM observation of three-dimensionally cultured artificial human skin after adding a drug (side effect evaluation); type: cell-based; details: 60 minutes after gefitinib dissolved in DMSO was added; SEM 2,500-fold; DMSO control kept normal morphology
Experimental: as §1
The artificial human skin obtained by sterically three-dimensionally culturing a normal human skin cell was treated with the protective agent for electron microscopic observation and the surfactant-containing solution in 60 minutes after gefitinib was added the artificial human skin. Thereafter, the artificial human skin covered with the surfactant-containing solution was introduced into the sample chamber of the SEM, irradiated with an electron beam to polymerize the surfactant-containing solution and thus to form a thin film, and subjected to the SEM observation (Example 12).
FIGS. 18A and 18B are photographs of the three-dimensionally cultured artificial human skin. FIG. 18A is a photograph which illustrates the artificial human skin being cultured and the culture vessel. In addition, FIG. 18B is a photograph of the HE-stained pathological section of the artificial human skin of FIG. 18A. FIG. 19(a) is an image of the artificial human skin which was observed and taken at a magnification of 2,500-fold by a SEM after gefitinib dissolved in dimethyl sulfoxide (DMSO) was added the artificial human skin. […]

## CNC(=O)c1cc(Oc2ccc(NC(=O)Nc3ccc(Cl)c(C(F)(F)F)c3)cc2)ccn1 [sorafenib]
[1]
  extension of a microfiber and invasion of the melanoma cell line into the normal skin cell: not able to extend a microfiber so that the invasion thereof is suppressed

## COc1cc2ncnc(Nc3ccc(F)c(Cl)c3)c2cc1OCCCN1CCOCC1 [gefitinib]
Artificial human skin
  surface change of a skin cell (side effect): peeled off in a scale shape
